Source: the NIST ThermoML archive (doi:10.1016/j.jct.2018.08.035)

Experiment: xn = mol fraction of the nth substance listed
Conditions: 100 kPa, Liquid, Vibrating tube method

CCC(O)CC [3-pentanol] + C[N+](=O)[O-]
Conditions	mass density [kg/m3]
286.95 K, x1 = 0.629	904.586
287.05 K, x1 = 0.629	904.424
287.15 K, x1 = 0.629	904.324
287.25 K, x1 = 0.629	904.302
287.35 K, x1 = 0.629	904.234
287.45 K, x1 = 0.629	904.174
287.55 K, x1 = 0.629	904.105
287.66 K, x1 = 0.629	904.02
287.75 K, x1 = 0.629	903.747
287.86 K, x1 = 0.629	903.73
287.96 K, x1 = 0.629	903.653
288.06 K, x1 = 0.629	903.559
288.16 K, x1 = 0.629	903.339
288.26 K, x1 = 0.629	903.249
288.36 K, x1 = 0.629	903.208
288.46 K, x1 = 0.629	903.194
288.56 K, x1 = 0.629	903.023
288.66 K, x1 = 0.629	902.916
288.75 K, x1 = 0.629	902.883
288.86 K, x1 = 0.629	902.656
288.95 K, x1 = 0.629	902.639
289.06 K, x1 = 0.629	902.563
289.15 K, x1 = 0.246	1016.83
289.15 K, x1 = 0.266	1014.93
289.15 K, x1 = 0.275	1013.85
289.15 K, x1 = 0.3	1007.8
289.15 K, x1 = 0.325	1002.84
289.15 K, x1 = 0.338	1001.68
289.15 K, x1 = 0.363	999.874
289.15 K, x1 = 0.382	999.889
289.15 K, x1 = 0.407	999.35
289.15 K, x1 = 0.486	980.562
289.15 K, x1 = 0.488	978.895
289.15 K, x1 = 0.546	955.829
289.15 K, x1 = 0.573	937.786
289.15 K, x1 = 0.615	911.044
289.15 K, x1 = 0.629	902.484
289.16 K, x1 = 0.587	928.424
289.25 K, x1 = 0.246	1015.69
289.25 K, x1 = 0.266	1014.12
289.25 K, x1 = 0.275	1013.22
289.25 K, x1 = 0.3	1007.17
289.25 K, x1 = 0.325	1002.28
289.25 K, x1 = 0.338	1000.75
289.25 K, x1 = 0.363	998.168
289.25 K, x1 = 0.382	998.358
289.25 K, x1 = 0.407	997.887
289.25 K, x1 = 0.414	998.161
289.25 K, x1 = 0.486	979.734
289.25 K, x1 = 0.488	978.223
289.25 K, x1 = 0.546	953.328
289.25 K, x1 = 0.573	937.432
289.25 K, x1 = 0.587	924.098
289.25 K, x1 = 0.629	902.36
289.26 K, x1 = 0.615	910.892
289.35 K, x1 = 0.3	1006.58
289.35 K, x1 = 0.338	999.725
289.36 K, x1 = 0.246	1014.41
289.36 K, x1 = 0.266	1013.24
289.36 K, x1 = 0.275	1012.41
289.36 K, x1 = 0.325	1001.72
289.36 K, x1 = 0.363	996.975
289.36 K, x1 = 0.382	996.614
289.36 K, x1 = 0.407	996.236
289.36 K, x1 = 0.414	996.775
289.36 K, x1 = 0.486	978.988
289.36 K, x1 = 0.488	977.267
289.36 K, x1 = 0.546	952.752
289.36 K, x1 = 0.573	936.899
289.36 K, x1 = 0.587	923.859
289.36 K, x1 = 0.615	909.942
289.36 K, x1 = 0.629	902.109
289.45 K, x1 = 0.246	1013.13
289.45 K, x1 = 0.266	1012.22
289.45 K, x1 = 0.275	1011.52
289.45 K, x1 = 0.3	1005.82
289.45 K, x1 = 0.325	1001.04
289.45 K, x1 = 0.338	998.278
289.45 K, x1 = 0.363	996.016
289.45 K, x1 = 0.382	994.795
289.45 K, x1 = 0.407	994.989
289.45 K, x1 = 0.414	995.114
289.45 K, x1 = 0.486	977.635
289.45 K, x1 = 0.488	975.638
289.45 K, x1 = 0.546	951.819
289.45 K, x1 = 0.573	936.914
289.45 K, x1 = 0.587	923.684
289.45 K, x1 = 0.629	901.973
289.46 K, x1 = 0.615	903.573
289.55 K, x1 = 0.266	1011
289.55 K, x1 = 0.3	1005.09
289.55 K, x1 = 0.325	1000.44
289.55 K, x1 = 0.407	993.27
289.55 K, x1 = 0.486	976.784
289.55 K, x1 = 0.546	950.242
289.55 K, x1 = 0.573	934.004
289.55 K, x1 = 0.629	901.33
289.56 K, x1 = 0.246	1011.83
289.56 K, x1 = 0.275	1010.74
289.56 K, x1 = 0.338	998.17
289.56 K, x1 = 0.363	995.361
289.56 K, x1 = 0.382	993.579
289.56 K, x1 = 0.414	993.6
289.56 K, x1 = 0.488	974.397
289.56 K, x1 = 0.587	923.551
289.56 K, x1 = 0.615	903.035
289.65 K, x1 = 0.246	1010.76
289.65 K, x1 = 0.266	1009.81
289.65 K, x1 = 0.275	1009.82
289.65 K, x1 = 0.3	1004.38
289.65 K, x1 = 0.325	999.918
289.65 K, x1 = 0.363	994.656
289.65 K, x1 = 0.382	992.659
289.65 K, x1 = 0.407	991.642
289.65 K, x1 = 0.414	991.992
289.65 K, x1 = 0.486	975.844
289.65 K, x1 = 0.488	973.516
289.65 K, x1 = 0.546	949.056
289.65 K, x1 = 0.573	932.207
289.65 K, x1 = 0.587	923.409
289.65 K, x1 = 0.615	903.013
289.65 K, x1 = 0.629	896.019
289.66 K, x1 = 0.338	997.588
289.75 K, x1 = 0.246	1009.91
289.75 K, x1 = 0.266	1008.57
289.75 K, x1 = 0.275	1008.78
289.75 K, x1 = 0.3	1003.47
289.75 K, x1 = 0.325	999.093
289.75 K, x1 = 0.363	994.035
289.75 K, x1 = 0.382	991.551
289.75 K, x1 = 0.407	989.735
289.75 K, x1 = 0.414	990.174
289.75 K, x1 = 0.486	974.653
289.75 K, x1 = 0.488	972.561
289.75 K, x1 = 0.546	947.686
289.75 K, x1 = 0.573	929.383
289.75 K, x1 = 0.587	924.024
289.75 K, x1 = 0.615	902.898
289.76 K, x1 = 0.338	996.84
289.85 K, x1 = 0.266	1007.2
289.85 K, x1 = 0.275	1007.7
289.85 K, x1 = 0.3	1002.58
289.85 K, x1 = 0.325	998.305
289.85 K, x1 = 0.363	993.362
289.85 K, x1 = 0.382	990.377
289.85 K, x1 = 0.407	988.132
289.85 K, x1 = 0.414	988.452
289.85 K, x1 = 0.486	973.161
289.85 K, x1 = 0.488	971.375
289.85 K, x1 = 0.546	946.847
289.85 K, x1 = 0.573	928.807
289.85 K, x1 = 0.587	917.506
289.86 K, x1 = 0.246	1009.43
289.86 K, x1 = 0.338	996.331
289.86 K, x1 = 0.615	902.789
289.95 K, x1 = 0.266	1005.77
289.95 K, x1 = 0.275	1006.41
